In ChEMBL document CHEMBL1157504, “Discovery and SAR of 2-(1-propylpiperidin-4-yl)-1H-benzimidazole-4-carboxamide: A potent inhibitor of poly(ADP-ribose) polymerase (PARP) for the treatment of cancer” (Bioorg Med Chem, 2008):
≈ marks a conversion by molar mass, not a printed value. One block for each compound: values may come before it.

Columns and labels:
[1] = biological target: T1, Poly [ADP-ribose] polymerase 1 (Homo sapiens, UniProt P09874)
[2] = biological target: T1, Poly [ADP-ribose] polymerase 1; remark: listed apart in the source
Description: Inhibition of PARP1 in human C41 cells

[3] = Oral bioavailability in CD1 mouse at 10 mg/kg; assay type: ADME, organism-based; conditions: in vivo
[4] = AUC in CD1 mouse at 10 mg/kg, po; assay type: ADME, organism-based; design: dose 10 mg/kg, route oral; conditions: plasma
[5] = Half life in CD1 mouse at 3 mg/kg, iv; assay type: ADME, organism-based; design: dose 3 mg/kg, route intravenous; conditions: in vivo
[6] = Cmax in CD1 mouse at 10 mg/kg, po; assay type: ADME, organism-based; design: dose 10 mg/kg, route oral; conditions: in vivo
[7] = AUC in rat at 4.1 mg/kg, po; assay type: ADME, organism-based; design: dose 4.1 mg/kg, route oral; conditions: plasma
[8] = Volume of distribution at steady state in dog at 4.1 mg/kg; assay type: ADME, organism-based, Canis lupus familiaris; design: dose 4.1 mg/kg; conditions: in vivo, read-out: Vdss
[9] = biological target: Poly [ADP-ribose] polymerase 2 (Homo sapiens, UniProt Q9UGN5); assay: Inhibition of PARP2
[10] = Oral bioavailability in dog at 4.1 mg/kg; assay type: ADME, organism-based, Canis lupus familiaris; conditions: in vivo
[11] = Half life in dog at 4.1 mg/kg, iv; assay type: ADME, organism-based, Canis lupus familiaris; design: dose 4.1 mg/kg, route intravenous; conditions: in vivo
[12] = Half life in monkey at 4.1 mg/kg, iv; assay type: ADME, organism-based, Macaca mulatta; design: dose 4.1 mg/kg, route intravenous; conditions: rhesus monkey, in vivo
[13] = AUC in monkey at 4.1 mg/kg, po; assay type: ADME, organism-based, Macaca mulatta; design: dose 4.1 mg/kg, route oral; conditions: rhesus monkey, plasma
[14] = Clearance in rat at 4.1 mg/kg; assay type: ADME, organism-based; design: dose 4.1 mg/kg; conditions: in vivo
[15] = Volume of distribution at steady state in CD1 mouse at 10 mg/kg; assay type: ADME, organism-based; design: dose 10 mg/kg; conditions: in vivo, read-out: Vdss
[16] = Volume of distribution at steady state in rat at 4.1 mg/kg; assay type: ADME, organism-based; design: dose 4.1 mg/kg; conditions: in vivo, read-out: Vdss
[17] = AUC in dog at 4.1 mg/kg, po; assay type: ADME, organism-based, Canis lupus familiaris; design: dose 4.1 mg/kg, route oral; conditions: plasma
[18] = Cmax in monkey at 4.1 mg/kg, po; assay type: ADME, organism-based, Macaca mulatta; design: dose 4.1 mg/kg, route oral; conditions: rhesus monkey, in vivo
[19] = Cmax in dog at 4.1 mg/kg, po; assay type: ADME, organism-based, Canis lupus familiaris; design: dose 4.1 mg/kg, route oral; conditions: in vivo
[20] = Clearance in dog at 4.1 mg/kg; assay type: ADME, organism-based, Canis lupus familiaris; design: dose 4.1 mg/kg; conditions: in vivo
[21] = Oral bioavailability in monkey at 4.1 mg/kg; assay type: ADME, organism-based, Macaca mulatta; conditions: rhesus monkey, in vivo
[22] = Solubility in water at pH 7.8; assay type: physicochemical
[23] = Clearance in CD1 mouse at 10 mg/kg; assay type: ADME, organism-based; design: dose 10 mg/kg; conditions: in vivo
[24] = Cmax in rat at 4.1 mg/kg, po; assay type: ADME, organism-based; design: dose 4.1 mg/kg, route oral; conditions: in vivo
[25] = Protein binding in human plasma; assay type: ADME, cell-free; conditions: read-out: PPB (converted)
[26] = Oral bioavailability in rat at 4.1 mg/kg; assay type: ADME, organism-based; conditions: in vivo
[27] = Half life in rat at 4.1 mg/kg, iv; assay type: ADME, organism-based; design: dose 4.1 mg/kg, route intravenous; conditions: in vivo
[28] = Volume of distribution at steady state in monkey at 4.1 mg/kg; assay type: ADME, organism-based, Macaca mulatta; design: dose 4.1 mg/kg; conditions: rhesus monkey, in vivo, read-out: Vdss
[29] = Half life in CD1 mouse at 3 mg/kg, iv; conditions: in vivo
[30] = Clearance in monkey at 4.1 mg/kg; assay type: ADME, organism-based, Macaca mulatta; design: dose 4.1 mg/kg; conditions: rhesus monkey, in vivo

Chain of Poly [ADP-ribose] polymerase 2 (Q9UGN5 whole entry): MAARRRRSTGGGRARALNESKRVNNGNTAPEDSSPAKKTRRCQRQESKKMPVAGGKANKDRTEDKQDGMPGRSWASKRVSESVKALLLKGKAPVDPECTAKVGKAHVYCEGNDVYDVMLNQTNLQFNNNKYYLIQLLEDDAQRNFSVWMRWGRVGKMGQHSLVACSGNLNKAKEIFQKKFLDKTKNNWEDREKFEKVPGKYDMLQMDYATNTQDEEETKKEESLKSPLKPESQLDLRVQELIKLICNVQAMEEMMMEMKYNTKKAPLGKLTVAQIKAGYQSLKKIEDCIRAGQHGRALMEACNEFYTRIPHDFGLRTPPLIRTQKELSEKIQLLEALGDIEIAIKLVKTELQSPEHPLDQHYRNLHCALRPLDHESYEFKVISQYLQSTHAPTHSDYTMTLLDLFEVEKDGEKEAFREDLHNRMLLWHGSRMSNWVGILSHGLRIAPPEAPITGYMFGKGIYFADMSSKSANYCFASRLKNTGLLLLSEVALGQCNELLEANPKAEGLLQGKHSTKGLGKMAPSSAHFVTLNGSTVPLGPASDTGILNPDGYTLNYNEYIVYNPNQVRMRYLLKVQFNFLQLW
T1 sequence (P09874 whole entry): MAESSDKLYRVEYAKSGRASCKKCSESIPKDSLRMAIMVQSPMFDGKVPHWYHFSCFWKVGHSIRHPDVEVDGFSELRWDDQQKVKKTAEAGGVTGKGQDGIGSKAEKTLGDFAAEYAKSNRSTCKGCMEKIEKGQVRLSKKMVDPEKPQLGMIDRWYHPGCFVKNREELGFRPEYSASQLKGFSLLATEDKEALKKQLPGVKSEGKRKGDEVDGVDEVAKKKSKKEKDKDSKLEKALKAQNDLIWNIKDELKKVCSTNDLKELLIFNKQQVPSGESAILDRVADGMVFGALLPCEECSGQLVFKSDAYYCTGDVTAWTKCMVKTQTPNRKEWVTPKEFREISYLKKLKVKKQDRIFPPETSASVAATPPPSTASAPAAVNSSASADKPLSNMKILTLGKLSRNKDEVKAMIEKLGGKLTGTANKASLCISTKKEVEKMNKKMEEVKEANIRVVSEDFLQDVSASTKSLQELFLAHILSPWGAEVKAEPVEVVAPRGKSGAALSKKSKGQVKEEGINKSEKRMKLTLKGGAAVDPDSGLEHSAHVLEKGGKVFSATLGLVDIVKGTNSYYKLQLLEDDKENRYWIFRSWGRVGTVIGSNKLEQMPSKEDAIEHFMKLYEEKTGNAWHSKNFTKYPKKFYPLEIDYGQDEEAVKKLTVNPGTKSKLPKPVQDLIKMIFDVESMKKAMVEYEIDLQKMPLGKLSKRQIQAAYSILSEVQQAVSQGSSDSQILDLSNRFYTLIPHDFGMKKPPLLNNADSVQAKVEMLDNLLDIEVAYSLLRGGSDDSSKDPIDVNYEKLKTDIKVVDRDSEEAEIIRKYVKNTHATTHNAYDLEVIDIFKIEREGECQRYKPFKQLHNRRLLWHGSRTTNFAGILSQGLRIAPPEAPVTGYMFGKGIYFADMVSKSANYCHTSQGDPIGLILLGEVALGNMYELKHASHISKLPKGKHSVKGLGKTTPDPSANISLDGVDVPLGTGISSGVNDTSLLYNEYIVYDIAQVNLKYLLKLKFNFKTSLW

Structure (SMILES): NC(=O)c1cccc2[nH]cnc12
Ki [1]: 240 nM

Structure (SMILES): COC1CCC(c2nc3cccc(C(N)=O)c3[nH]2)CC1 (centres undefined)
Ki [1]: 44 nM
EC50 [2]: 210 nM

Structure (SMILES): CC(C)N1CCC[C@H]1c1nc2c(C(N)=O)cccc2[nH]1
Ki [1]: 20 nM
EC50 [2]: 15 nM

Structure (SMILES): NC(=O)c1cccc2[nH]c(C3CCN(C4CCCC4)CC3)nc12
Ki [1]: 6 nM
EC50 [2]: 5 nM

Structure (SMILES): CCCN1CC(c2nc3c(C(N)=O)cccc3[nH]2)C1
Ki [1]: 17 nM
EC50 [2]: 16 nM

Structure (SMILES): CC(C)N1CCC(c2nc3c(C(N)=O)cccc3[nH]2)CC1
Ki [9]: 2 nM
Ki [1]: 7 nM
EC50 [2]: 4 nM

Structure (SMILES): NC(=O)c1cccc2[nH]c(C3CCN(CCc4ccccc4)C3)nc12 (centres undefined)
bioavailability [3]: 89%
AUC [4]: 1300 ng·h/mL
half-life [5]: 0.8 h
EC50 [2]: 6 nM
Cmax [6]: 700 ng/mL

Structure (SMILES): CN1CCCC(c2nc3c(C(N)=O)cccc3[nH]2)C1 (centres undefined)
Ki [1]: 30 nM
EC50 [2]: 15 nM

Structure (SMILES): N#Cc1ccc(N2CCC(c3nc4c(C(N)=O)cccc4[nH]3)CC2)cc1
Ki [1]: 3 nM
EC50 [2]: 21 nM

Structure (SMILES): NC(=O)c1cccc2[nH]c(C3CNCCN3)nc12 (centres undefined)
Ki [1]: 26 nM
EC50 [2]: > 1000 nM

Structure (SMILES): CN(C)S(=O)(=O)N1CCC(c2nc3c(C(N)=O)cccc3[nH]2)CC1
Ki [1]: 28 nM
EC50 [2]: 170 nM

Structure (SMILES): CC(C)N1CCC(c2nc3c(C(N)=O)cc(Cl)cc3[nH]2)CC1
Ki [1]: 18 nM
bioavailability [3]: 100%
AUC [4]: 1700 ng·h/mL
half-life [5]: 1.4 h
EC50 [2]: 9 nM
Cmax [6]: 300 ng/mL

Structure (SMILES): CC(C)N1CCC1c1nc2c(C(N)=O)cccc2[nH]1 (centres undefined)
Ki [1]: 110 nM

Structure (SMILES): NC(=O)c1cccc2[nH]c(C3CCCNC3)nc12 (centres undefined)
Ki [1]: 11 nM
bioavailability [3]: 26%
AUC [4]: 1000 ng·h/mL
half-life [5]: 2 h
EC50 [2]: 24 nM
Cmax [6]: 200 ng/mL

Structure (SMILES): CCCN1CCC(c2nc3c(C(N)=O)cccc3[nH]2)C1 (centres undefined)
Ki [1]: 8 nM
EC50 [2]: 3 nM

Structure (SMILES): CC(C)N1CCCCC1c1nc2c(C(N)=O)cccc2[nH]1 (centres undefined)
Ki [1]: 45 nM
EC50 [2]: 13 nM

Structure (SMILES): CCCN1CCC(c2nc3c(C(N)=O)cccc3n2C)CC1
Ki [1]: 34 nM
EC50 [2]: 21 nM

Structure (SMILES): NC(=O)c1cccc2[nH]c(C3CCN(S(=O)(=O)c4ccccc4)CC3)nc12
Ki [9]: 24 nM
Ki [1]: 27 nM
EC50 [2]: > 1000 nM

Now from value to compound:

Ki [1]: 29 nM
EC50 [2]: 30 nM
Structure (SMILES): CN1CCCCC1c1nc2c(C(N)=O)cccc2[nH]1 (centres undefined)

Ki [1]: 22 nM
bioavailability [3]: 100%
AUC [4]: 1200 ng·h/mL
half-life [5]: 0.4 h
EC50 [2]: 12 nM
Cmax [6]: 800 ng/mL
Structure (SMILES): CC(C)N1CCCC(c2nc3cccc(C(N)=O)c3[nH]2)C1 (centres undefined)

AUC [7]: 700 ng·h/mL
Vd [8]: 3.6 L/kg
Ki [9]: 5 nM
bioavailability [10]: 82%
half-life [11]: 2.7 h
half-life [12]: 1.7 h
AUC [13]: 700 ng·h/mL
clearance [14]: 48.3 mL/min/kg
Vd [15]: 9.1 L/kg
Vd [16]: 10.7 L/kg
AUC [17]: 3700 ng·h/mL
Ki [1]: 8 nM
Cmax [18]: 200 ng/mL
Cmax [19]: 1000 ng/mL
bioavailability [3]: 63%
clearance [20]: 15 mL/min/kg
bioavailability [21]: 32%
solubility [22]: 6000 µg/mL (≈ 21 mM)
AUC [4]: 1200 ng·h/mL
half-life [5]: 1.2 h
clearance [23]: 88.3 mL/min/kg
Cmax [24]: 800 ng/mL
fraction unbound [25]: 0.43
bioavailability [26]: 48%
half-life [27]: 2.6 h
Vd [28]: 4.9 L/kg
EC50 [2]: 3 nM
Cmax [6]: 400 ng/mL
half-life [29]: 1.2 h
clearance [30]: 33.3 mL/min/kg
Structure (SMILES): CCCN1CCC(c2nc3cccc(C(N)=O)c3[nH]2)CC1

Ki [1]: 19 nM
EC50 [2]: 9 nM
Structure (SMILES): CN1CCC(c2nc3cccc(C(N)=O)c3[nH]2)CC1

Ki [1]: 31 nM
EC50 [2]: 94 nM
Structure (SMILES): CCN(CC)CCN1CCC(c2nc3cccc(C(N)=O)c3[nH]2)CC1

Ki [9]: 3 nM
Structure (SMILES): NC(=O)c1cccc2nc([C@@H]3CCC(=O)N3)[nH]c12

Ki [1]: 59 nM
Structure (SMILES): CC(=O)N1CCC(c2nc3cccc(C(N)=O)c3[nH]2)CC1

Ki [1]: 5 nM
EC50 [2]: > 1000 nM
Structure (SMILES): NC(=O)c1cccc2[nH]c(C3CCNCC3)nc12

bioavailability [3]: 100%
AUC [4]: 3400 ng·h/mL
half-life [5]: 1.2 h
Cmax [6]: 1800 ng/mL
Structure (SMILES): NC(=O)c1cccc2[nH]c([C@H]3CCCN3)nc12

EC50 [2]: 200 nM
Structure (SMILES): NC(=O)c1cccc2[nH]c(C3CCN3)nc12 (centres undefined)

Ki [1]: 21 nM
EC50 [2]: 12 nM
Structure (SMILES): CC(C)N1CCC[C@@H]1c1nc2cccc(C(N)=O)c2[nH]1

bioavailability [3]: 25%
AUC [4]: 40 ng·h/mL
half-life [5]: 0.1 h
Cmax [6]: 30 ng/mL
Structure (SMILES): CN1CCC[C@@H]1c1nc2c(C(N)=O)cccc2[nH]1

Ki [1]: 5 nM
EC50 [2]: 6 nM
Structure (SMILES): CC(C)N1CCCC(c2nc3cccc(C(N)=O)c3[nH]2)CC1 (centres undefined)

Ki [1]: 35 nM
EC50 [2]: 97 nM
Structure (SMILES): CN1CCN(C)C(c2nc3cccc(C(N)=O)c3[nH]2)C1 (centres undefined)

Ki [9]: 11 nM
Structure (SMILES): NC(=O)c1cccc2[nH]c(C3CNC3)nc12
